Target: T1, ShaI/KChIP (Drosophila melanogaster, UniProt P17971)
T1 construct: expressed in transfected cells; subclone 18-13-20
T1 sequence (P17971 with tags, fused parts or gaps isoform P17971-1): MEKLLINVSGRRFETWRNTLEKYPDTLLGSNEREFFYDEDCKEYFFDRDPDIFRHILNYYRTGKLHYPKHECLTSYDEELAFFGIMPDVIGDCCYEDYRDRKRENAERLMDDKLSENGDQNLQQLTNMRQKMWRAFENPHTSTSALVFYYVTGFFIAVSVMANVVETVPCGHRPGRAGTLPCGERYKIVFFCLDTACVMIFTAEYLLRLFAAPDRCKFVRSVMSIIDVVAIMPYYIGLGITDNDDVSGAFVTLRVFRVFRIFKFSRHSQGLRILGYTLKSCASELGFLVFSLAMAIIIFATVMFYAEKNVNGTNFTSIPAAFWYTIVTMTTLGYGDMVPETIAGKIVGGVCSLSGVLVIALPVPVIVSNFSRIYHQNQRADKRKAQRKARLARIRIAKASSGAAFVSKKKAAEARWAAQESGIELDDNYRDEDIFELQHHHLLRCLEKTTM
Assay: Whole-cell patch clamp on ShaI/KChIP 20 cells
Format: cell-based
Details: 100 uM [final], incubation five minutes
Experimental: Chinese hamster ovary (CHO) cells transfected with (a) a Drosophila ShaI gene (b) a Drosophila ShaI pore mutant gene and (c) a Drosophila ShaI+KChIP gene, and were used for all measurements. Cells were plated in 35 mm Petri dishes 2-6 hours before the experiment.
Data were acquired and analyzed using pClamp software (version 9.0.1.16). The whole-cell configuration of the patch-clamp technique was used to voltage clamp cells at room temperature (22-25° C.). Pipettes were pulled from borosilicate glass capillaries (#8250, Garner Glass, Claremont, Calif.) using a DMZ Universal Puller (Zeitz, Munich, Germany) and had resistances of 1-2 MOhm when filled with pipette solution and measured in bath solution. The liquid junction potential between bath and pipette solution was always compensated before the formation of a gigaohm seal.
Membrane current was measured under whole-cell clamp, sampled at 2 kHz and filtered at 1 kHz by an Axoclamp 200B (Axon Instruments). […]
To study ShaI currents on CHO cells, cells were held at −70 mV and a family of 500 ms test voltage pulses was applied starting from −70 to +70 mV, or +100 mV, in 10 mV increments. The amplitude, as measured for the current-voltage relationship, was defined as the maximal current at a given membrane potential. […]
FIG. 13: ShaI/KChIP inhibited by arachidonic acid. […] Pre- and post-compound currents were measured under whole-cell clamp. […]

## CCCCC/C=C\C/C=C\C/C=C\C/C=C\CCCC(=O)O [arachidonic acid]
  inhibition of total ShaI/KChIP current: Complete inhibition

Source: patent US9029080B2, “Screening assay for insecticides” (priority 2008, dated 2015)
